Source: publication PMC8071314, “Computational Design and Development of Benzodioxane-Benzamides as Potent Inhibitors of FtsZ by Exploring the Hydrophobic Subpocket” (Antibiotics, 2021)
In brackets after ≈: the same amount, converted by molar mass.

Key:
MDRSA 12.1 = test: MIC on multidrug resistant clinical S. aureus strain MDRSA 12.1 (EUCAST/CLSI); assay type: cell-based, Staphylococcus aureus; conditions: for MIC: Staphylococcus aureus, MDRSA 12.1
Method: (§1) We tested 1–8 for their antimicrobial activity on different S. aureus strains (Table 2).
(§2) The antibacterial activities on MDRSA 11.7 and MDRSA 12.1 were performed following the European Committee on Antimicrobial Susceptibility Testing (EUCAST) recommendations and Clinical and Laboratory Standards Institute (CLSI) guidelines, as detailed before. Tetracycline was used as a positive control on every assay plate.

[1] = system: B. subtilis strain WM5126; test: Spot viability assay on LB plates; assay type: cell-based; conditions: Bacillus subtilis, spotted on LB plates with 0, 0.03, 0.06, 0.1 or 1 µg/mL compound
Method: The promising properties of these new compounds prompted us to test them on B. subtilis, a model Gram-positive species used previously in evaluating other benzamides, such as 8j, the benzothiazole derivative of PC190723 [28]. We chose derivatives 1, 5, and 8, which had the lowest MICs on S. aureus and because they were representative of different substituents on the benzodioxane scaffold. B. subtilis strain WM5126 was grown until early log phase, and then 1 × and 10 × dilutions of the culture were spotted onto LB plates containing 0, 0.03, 0.06, 0.1, or 1 µg/mL final concentration of the compounds.
The two B. subtilis strains used were WM3612 (JH642 amyE::Pxyl-gfp-gp56), described in Bhambani et al., and WM5126 (JH642 amyE::Pxyl-gfp-zapA), which is the same as strain FG347 [29]. For spot viability assays on plates, compounds were diluted from DMSO stocks into molten LB agar as described above and mixed well before solidifying. WM3612 cultures were grown to early exponential phase in LB broth at 37 °C, then spotted directly or after 1:10 dilution into LB onto LB plates containing various concentrations of compounds. After allowing spots to air dry, plates were then incubated overnight at 34 °C and photographed.

[2] = system: MSSA ATCC 29213 and MRSA ATCC 43300; test: MIC and MBC on methicillin-sensitive and methicillin-resistant S. aureus; assay type: cell-based, Staphylococcus aureus; conditions: for fold more potent than inferior (methylenoxy) homolog: MRSA and MSSA, 1 vs VI, 2 vs VII, 3 vs V, 5 vs 4, 8 vs 7; for MIC / MBC: Staphylococcus aureus, MSSA ATCC 29213 and MRSA ATCC 43300; for MIC: lowest dose arresting bacterial growth; for MBC: minimal dose for irreversible block
Method: (§3) We first determined the minimal inhibitory concentration (MIC), i.e., the lowest compound dose (µM) arresting bacterial growth, and the minimal bactericidal concentration (MBC), i.e., the minimal dose (µM) of the compound required for an irreversible block, even after drug removal. Secondly, the derivatives having the most promising activities vs. MRSA were also tested on human MRC-5 cells, calculating their percentages of cytotoxicity by using the MTT assay. Cells were first incubated with each compound for 24 h, then the derivative was removed, and the cells were overlaid with MTT for an additional 3 h. After that time, DMSO replaced the MTT solution, and after 10 min the absorbance was measured at 570 nm. The percentage of cytotoxicity was defined by the formula [100 − (sample OD/untreated cells OD) × 100]. Table 2 reports TD90, defined as the compound concentration (µM) that reduced viability of MRC-5 cells by 90%. Moreover, we reported the therapeutic index (TI), as TD90 and MBC ratio.
The antibacterial activity was tested on both a methicillin-sensitive and a methicillin-resistant S. aureus strain, dissolving all the compounds in dimethyl sulfoxide (DMSO) and using fresh cell cultures at 10^5 cells/mL, in a final volume of 2 mL. The detailed protocol is identical to what was previously reported. Every assay was performed in quadruplicate, and for each series of experiments, both positive (no compounds) and negative (no bacteria) controls were included.

MRC-5 cells = test: MTT cytotoxicity assay on MRC-5 cells; assay type: cell-based, human; conditions: concentration reducing viability of MRC-5 cells by 90%, 24 h incubation
Method: as §3
Compounds showing an antibacterial activity at a concentration lower than 10 μg/mL were serially diluted in DMEM and tested for cytotoxicity on MRC-5 cells by the MTT assay (Sigma, St Louis, MO, USA). Protocol was the same previously reported.

MDRSA 11.7 = test: MIC on multidrug resistant clinical S. aureus strain MDRSA 11.7 (EUCAST/CLSI); assay type: cell-based; conditions: Staphylococcus aureus
Method: as §1, §2

[3] = system: B. subtilis FtsZ rings (strain WM5126, GFP-ZapA); test: Fluorescence microscopy of GFP-ZapA (Z ring) localization; assay type: cell-based, Bacillus subtilis; conditions: 1 h exposure
Method: (yellow arrows in Figure 5 highlight normal sharp bands at the future division sits). On the contrary, in cells treated with compounds 7 and 8, we observed GFP-ZapA forming many (0.4 µg/mL 7) or nearly all (0.8 µg/mL 7 or 0.4 µg/mL 8) foci or focal clusters (white arrows in Figure 5), and abnormal cell elongation is clearly evident. The perturbation of Z rings and cell elongation is similar to the previously described effects of 8j.
For fluorescence microscopy, overnight cultures of WM5126 were grown at […] (after 1:200 dilution of overnight and addition of 0.1% xylose to induce expression of GFP-ZapA) for ~2 h until reaching an OD600 of ~0.2, then treated with no drug or with compounds 7 or 8 diluted in water from stock solutions of 40 mg/mL (8) or 27 mg/mL (7) in DMSO. Those dilutions (40 µg/mL in water) were then added at 1:100 or 1:50 to the cultures and grown for 1 h shaking at 33 °C prior to spotting on a thin layer of 1% agarose in phosphate buffered saline. Cells were imaged with differential interference contrast (DIC) and fluorescence using an Olympus BX100 fitted with a 100 × Plan Apochromat objective (N.A. 1.4) and a GFP filter set (Chroma). Images were acquired with CellSens software (Olympus) and DIC, and fluorescent images of the same field were overlaid using ImageJ [31].
Figure 5 Effect of compounds 7 and 8 on B. subtilis Z rings. B. subtilis strain WM5126 was induced with 0.1% xylose to express GFP-ZapA, then exposed to compounds 7 or 8 for 1 h during exponential growth at 37 °C prior to imaging by DIC and fluorescence. Yellow arrows indicate normal sharp rings at the future division site, while white arrows indicate abnormal foci or clusters. Scale bar, 5 µm.

MSSA ATCC29213 = system: MSSA ATCC29213; parameters: method as in PMID 25462242, PMID 27191617, PMID 31750973, PMID 28586174, PMID 32260339; conditions: Figure 1; cited from earlier work

| Compound | MIC (MDRSA 12.1) | MIC [1] | fold more potent than inferior (methylenoxy) homolog [2] | MIC [2] | MBC [2] | TD90 (MRC-5 cells) | MIC (MDRSA 11.7) | times more active than inferior homolog (MDRSA 12.1; MDRSA, 3 vs V) | GFP-ZapA forming foci or focal clusters ([3]; 0.4 µg/mL) | GFP-ZapA forming foci or focal clusters ([3]; 0.8 µg/mL) | melting point | MIC (MSSA ATCC29213) |
| --- | --- | --- | --- | --- | --- | --- | --- | --- | --- | --- | --- | --- |
| Cc1nc(-c2ccc3c(c2)OC(CCOc2ccc(F)c(C(N)=O)c2F)CO3)no1 (stereo not drawn) [Compound 1, 3-[2-(7-(5-methyl-1,2,4-oxadiazol-3-yl)-1,4-benzodioxan-2-yl)ethyloxy]-2,6-difluorobenzamide] | 1.2 µM (≈ 0.501 µg/mL) | 0.1 to 1 µg/mL (≈ 0.24 to 2.4 µM) | 5 fold | 1.2 µM (≈ 0.501 µg/mL) | 1.2 µM (≈ 0.501 µg/mL) | >1910 µM | 1.2 µM (≈ 0.501 µg/mL) |  |  |  |  |  |
| CCc1nc(-c2ccc3c(c2)OC(CCOc2ccc(F)c(C(N)=O)c2F)CO3)no1 (stereo not drawn) [Compound 2] | 0.6 µM (≈ 0.259 µg/mL) |  | 10 fold | 0.6 µM (≈ 0.259 µg/mL) | 0.6 µM (≈ 0.259 µg/mL) | 1854 µM | 0.6 µM (≈ 0.259 µg/mL) |  |  |  |  |  |
| CSc1nc(-c2ccc3c(c2)OC(CCOc2ccc(F)c(C(N)=O)c2F)CO3)no1 (stereo not drawn) [Compound 3, 3-[2-(7-(5-methylthio-1,2,4-oxadiazol-3-yl)-1,4-benzodioxan-2-yl)ethyloxy]-2,6-difluorobenzamide] | 1.1 µM (≈ 0.494 µg/mL) |  | three | 0.5 µM (≈ 0.225 µg/mL) | 0.5 µM (≈ 0.225 µg/mL) | 1668 µM | 1.1 µM (≈ 0.494 µg/mL) | two |  |  |  |  |
| NC(=O)c1c(F)ccc(OCC2COc3cc4ccccc4cc3O2)c1F (stereo not drawn) [Compound 4, 3-[(2,3-dihydronaphtho[2,3-b][1,4]dioxin-2-yl)methoxy]-2,6-difluorobenzamide] | 11.4 µM (≈ 4.23 µg/mL) |  |  | 7.1 µM (≈ 2.64 µg/mL) | 7.1 µM (≈ 2.64 µg/mL) | >2276 µM | 11.4 µM (≈ 4.23 µg/mL) |  |  |  |  |  |
| NC(=O)c1c(F)ccc(OCCC2COc3cc4ccccc4cc3O2)c1F (stereo not drawn) [Compound 5, 3-[2-(2,3-dihydronaphtho[2,3-b][1,4]dioxin-2-yl)ethoxy]-2,6-difluorobenzamide] | 0.6 µM (≈ 0.231 µg/mL) | < 0.1 µg/mL | 12 fold | 0.6 µM (≈ 0.231 µg/mL) | 0.6 µM (≈ 0.231 µg/mL) | 233 µM | 1.3 µM (≈ 0.501 µg/mL) |  |  |  |  |  |
| NC(=O)c1c(F)ccc(OCCCOc2ccc3ccccc3c2)c1F [Compound 6] | 11.2 µM (≈ 4 µg/mL) |  |  | 14 µM (≈ 5 µg/mL) | 14 µM (≈ 5 µg/mL) | >2238 µM | 11.2 µM (≈ 4 µg/mL) |  |  |  |  |  |
| NC(=O)c1c(F)ccc(OCC2COc3cc4c(cc3O2)CCCC4)c1F (stereo not drawn) [Compound 7] | 5.3 µM (≈ 1.99 µg/mL) |  |  | 13.3 µM (≈ 4.99 µg/mL) | 13.3 µM (≈ 4.99 µg/mL) | 200 µM | 10.7 µM (≈ 4.02 µg/mL) |  | many | nearly all |  |  |
| NC(=O)c1c(F)ccc(OCCC2COc3cc4c(cc3O2)CCCC4)c1F (stereo not drawn) [Compound 8, 3-[2-(2,3,6,7,8,9-hexahydronaphtho[2,3-b][1,4]dioxin-2-yl)ethoxy]-2,6-difluorobenzamide] | 0.3 µM (≈ 0.117 µg/mL) | < 0.1 µg/mL | 50 fold | 0.25 µM (≈ 0.0973 µg/mL) | 0.25 µM (≈ 0.0973 µg/mL) | 2054 µM | 0.3 µM (≈ 0.117 µg/mL) |  | nearly all |  | 166.5 °C |  |
| NC(=O)c1c(F)ccc(OCc2nc3cc(Cl)ccc3s2)c1F [Compound 8j] |  |  |  |  |  |  |  |  |  |  |  | 0.70 µM (≈ 0.248 µg/mL) |
| NC(=O)c1c(F)ccc(OCC2COc3ccccc3O2)c1F (stereo not drawn) [I, reference compound] | 24.9 µM (≈ 8 µg/mL) |  |  | 15.6 µM (≈ 5.01 µg/mL) | 249 µM (≈ 80 µg/mL) | 49.8 µM | 49.8 µM (≈ 16 µg/mL) |  |  |  |  | 15.6 µM (≈ 5.01 µg/mL) |
| NC(=O)c1c(F)ccc(OCCC2COc3ccccc3O2)c1F (stereo not drawn) [II, reference compound] | 11.9 µM (≈ 3.99 µg/mL) |  |  | 14.9 µM (≈ 5 µg/mL) | 14.9 µM (≈ 5 µg/mL) | 226 µM | 11.9 µM (≈ 3.99 µg/mL) |  |  |  |  | 14.9 µM (≈ 5 µg/mL) |
| NC(=O)c1c(F)ccc(OCCCC2COc3ccccc3O2)c1F (stereo not drawn) [III] |  |  |  |  |  |  |  |  |  |  |  | 28.6 µM (≈ 9.99 µg/mL) |
| COC(=O)c1ccc2c(c1)OC(COc1ccc(F)c(C(N)=O)c1F)CO2 (stereo not drawn) [IV] |  |  |  |  |  |  |  |  |  |  |  | 1.6 µM (≈ 0.607 µg/mL) |
| NC(=O)c1c(F)ccc(OCc2nc3cc(Cl)cnc3s2)c1F [PC190723] |  |  |  |  |  |  |  |  |  |  |  | 2.8 µM (≈ 0.996 µg/mL) |
| CSc1nc(-c2ccc3c(c2)OC(COc2ccc(F)c(C(N)=O)c2F)CO3)no1 (stereo not drawn) [V, reference compound] | < 2.3 µM |  |  | 1.4 µM (≈ 0.61 µg/mL) | 1.4 µM (≈ 0.61 µg/mL) | 1700 µM | < 2.3 µM |  |  |  |  | 1.4 µM (≈ 0.61 µg/mL) |
| Cc1nc(-c2ccc3c(c2)OC(COc2ccc(F)c(C(N)=O)c2F)CO3)no1 (stereo not drawn) [VI, reference compound] | 5 µM (≈ 2.02 µg/mL) |  |  | 6.2 µM (≈ 2.5 µg/mL) | 6.2 µM (≈ 2.5 µg/mL) | >1983 µM | 9.9 µM (≈ 3.99 µg/mL) |  |  |  |  | 6.2 µM (≈ 2.5 µg/mL) |
| CCc1nc(-c2ccc3c(c2)OC(COc2ccc(F)c(C(N)=O)c2F)CO3)no1 (stereo not drawn) [VII, reference compound] | 4.8 µM (≈ 2 µg/mL) |  |  | 6 µM (≈ 2.5 µg/mL) | 6 µM (≈ 2.5 µg/mL) | >1916 µM | 9.6 µM (≈ 4.01 µg/mL) |  |  |  |  | 6.0 µM (≈ 2.5 µg/mL) |
